# Source: patent publication US6960607B2, “Naphthyl benzoxazoles and benzisoxazoles as estrogenic agents” (Wyeth, priority 2001, dated 2005)
# What was measured:
# human ERβ = molecular target: T1, human ERβ (Homo sapiens, UniProt Q92731); assay: Radioligand binding competition with [3H]-17β-estradiol, ERβ; conditions: ligand binding domain expressed in E. coli lysate, read-out: ER-β IC50
# T1 construct: M214-Q530 of human ERβ; Flag (C); made in house; host or cells: E. coli BL21(DE3); clarified lysate used
# human ERα = molecular target: T2, human ERα (Homo sapiens, UniProt P03372); assay: Radioligand binding competition with [3H]-17β-estradiol, ERα; conditions: ligand binding domain expressed in E. coli lysate, read-out: ER-α IC50
# T2 construct: amino acids M250V595 of human ERα; His (N); made in house; host or cells: E. coli BL21(DE3); clarified lysate used
# T2 sequence (P03372 250-595): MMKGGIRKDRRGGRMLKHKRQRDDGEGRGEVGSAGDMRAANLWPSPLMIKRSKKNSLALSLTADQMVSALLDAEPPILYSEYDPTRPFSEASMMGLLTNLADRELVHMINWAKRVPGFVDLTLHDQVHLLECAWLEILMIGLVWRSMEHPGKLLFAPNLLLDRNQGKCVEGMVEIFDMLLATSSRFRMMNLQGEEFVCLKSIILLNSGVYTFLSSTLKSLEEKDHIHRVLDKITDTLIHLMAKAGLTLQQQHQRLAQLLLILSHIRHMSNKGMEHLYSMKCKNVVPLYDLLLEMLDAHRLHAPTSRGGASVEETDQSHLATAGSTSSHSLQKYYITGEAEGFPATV
# T1 sequence (Q92731 214-530): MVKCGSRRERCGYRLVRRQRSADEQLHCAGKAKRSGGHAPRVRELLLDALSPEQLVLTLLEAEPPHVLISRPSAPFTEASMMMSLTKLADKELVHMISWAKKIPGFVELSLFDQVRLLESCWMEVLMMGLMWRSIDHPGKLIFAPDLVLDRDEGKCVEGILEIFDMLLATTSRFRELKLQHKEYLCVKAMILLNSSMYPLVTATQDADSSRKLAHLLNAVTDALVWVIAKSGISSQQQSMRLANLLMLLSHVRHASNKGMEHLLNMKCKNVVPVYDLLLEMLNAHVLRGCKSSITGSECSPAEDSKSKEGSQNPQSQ
Compound,IC50 (human ERβ),IC50 (human ERα),melting point
"CCn1nc(-c2ccc3cc(O)ccc3c2)c2ccc(O)cc21 [Example 18, 1-Ethyl-3-(6-hydroxy-2-naphthyl)-1H-indazol-6-ol]",> 5000 nM,3170 nM,146 to 148 °C
"Cn1nc(-c2ccc3cc(O)ccc3c2)c2ccc(O)cc21 [Example 17, 3-(6-Hydroxy-2-naphthyl)-1-methyl-1H-indazol-6-ol]",1510 nM,> 5000 nM,290 to 292 °C
"Oc1ccc2oc(-c3ccc(O)c4ccccc34)nc2c1 [Example 6, 2-(4-Hydroxy-1-naphthyl)-1,3-benzoxazol-5-ol]",230 nM,581 nM,182 to 184 °C
